Patent US20250236616A1, “IMMUNOMODULATING AZALIDES” (Zoetis Services LLC, priority 2021, published 2025)
≈ marks a conversion by molar mass, not a printed value.

Experiments:
[1] = tested on: TNF-α; test: Whole bovine blood assay, LPS-induced TNF-α; type: cell-based; conditions: Bos taurus, fresh whole bovine blood, LPS stimulant; top drug concentration 250 μM
Summary of the method: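 Fresh heparinized bovine whole blood was preincubated with compound 4 h at 37 °C, then stimulated with LPS (final 1 μg/mL) for 18 h at 37 °C. Plasma TNF-α was quantified by MSD U-Plex chemiluminescent immunoassay, normalized to total protein (BCA), and IC50 taken for LPS-induced TNF-α inhibition.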

[2] = tested on: IL-6; test: Whole bovine blood assay, LPS-induced IL-6; type: cell-based; conditions: Bos taurus, fresh whole bovine blood, LPS stimulant; top drug concentration 250 μM
[3] = tested on: P. multocida 46572; test: In vivo mouse lung infection challenge model (murine efficacy), survival; parameters: species or system CD-1 female mice; conditions: P. multocida 46572 intranasal challenge; 20 mg/kg subcutaneous; harmonized relative to vehicle (−) and M9 (+) controls
Experimental: The challenge organism was P. multocida 46572. Target challenge concentration was 5×10^2 CFU/mouse. Isolated colonies from overnight growth (37° C. with 5% CO2) on trypticase soy agar (TSA II) blood plates were transferred to room temperature Brain Heart Infusion Broth (BHIB). The broth culture was incubated 3.5-4 hours to approximately mid-log phase of growth, as measured by forward light scatter at 600 nm (OD600, 0.200). The culture was centrifuged to collect the bacterial pellet. The pellet was re-suspended in BHIB and adjusted to provide an approximate concentration of 2.7 log 10 colony forming units (CFU) in 0.04 mL at the highest concentration. The challenge inoculum concentration was confirmed by serial dilutions of the inoculum for CFU enumeration. On Day −5, CD −1 female mice were received. Mice were given standard rodent diet and water ad libitum. On Day 0, bacterial inoculum (0.04 mL) was administered to each mouse (n=36) intranasally. Compounds of the invention were dosed at 20 mg/kg (0.1 mL) in a buffered (˜pH 5.4) propylene glycol, monothioglycerol and water solution by subcutaneous injection. Animals were observed from Days 1-10. The study was terminated on Day 10. In addition, some treatment groups were sampled at 6, 24, and 48 hours post bacterial challenge for RNA sequence analysis of lung tissue.
The murine efficacy model (P.multocida challenge) was optimized, and the treatment group size was powered to be able to observe statistically significant improvement of survival to expected ranges for immunomodulatory compounds. The experimental design was a randomized complete block design. Mice were individually identified and treatment groups comingled within a cage, with every treatment group equally represented across cages. Mortality was the primary variable. Mortality data was analyzed using a generalized mixed model with fixed effect of treatment and random effect of block. Survival time was also analyzed using the SAS PHREG (survival analysis) procedure to examine whether there were significant differences between treatment groups and the control group. Numerous compounds of the invention and M9 (positive control) were tested in this model at a dose of 20 mg/kg (Table 3). Typical percent survival for no treatment control is in the range of 0-20% based on study to study variation in challenge inoculum and rate of infection. […] Mouse survival for M9 was about 90-100%, further supporting its residual antibacterial properties against the bacterial strain.

[4] = tested on: IL-1β; test: Whole bovine blood assay, LPS-induced IL-1β (inhibition / overstimulation); type: cell-based; conditions: Bos taurus, 18 h, drug concentration giving overstimulation (OS) of LPS-induced IL-1β, top concentration 250 μM
Summary of the method: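 IL-1β was quantified by MSD U-Plex chemiluminescence in plasma and normalized to BCA total protein. Bovine blood was pretreated 4 h at 37 °C with compound dilutions before 18 h LPS challenge (1 μg/mL final). Rising IL-1β at high concentrations was recorded as overstimulation.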

[5] = tested on: H. somni; test: MIC, H. somni strains; type: cell-based; conditions: for MIC values, range: H. somni strains
Description: (§1) Primary screening of the compounds of the invention included the evaluation of antibacterial activity of analogs through determination of microbial inhibition concentration (MIC) as per CLSI guidelines. The screening panel included the relevant BRD pathogens: 1) M. haemolytica (e.g., 12726, 46571 and 49023, all AHDRCC; and 33396 (ATCC)); and 2) P. multocida (e.g., 34135 and 46572 (both AHDRCC) and 43137 (ATCC)). In some instances, H. somni (A700025K) pathogens were also included in the screening panel. The AHDRCC strains originated from the Zoetis BRD/SRD surveillance program and refer to the Animal Health Development and Research Culture Collection. In addition, the screen assessed S. aureus (29213 ATCC) as a representative Gram-positive isolate, E.faecalis (19433 ATCC) as a commensal gram-positive gastrointestinal bacterium and E. coli (100, 3110 and 25922 (ATCC)) for the evaluation of efflux potential. The screening panel BRD pathogens were assessed in determining antibacterial activity of the Formula (1) compounds.
(§2) All relevant BRD pathogens were initially screened at a top concentration of 64 μg/mL of a Formula (1) compound in an eleven-point dilution series. […] If an Example was purified further, the MICs moved […] essentially two dilutions across all strains tested in the screening panel.
(§3) In-Vitro MIC Model Compounds were analyzed for antibacterial activity against a panel of animal health specific gram-positive and gram-negative clinical strains by diluting compounds in DMSO to an appropriate stock concentration to determine the Minimal Inhibitory Concentration (MIC) via a semi-automated broth micro-dilution method (CLSI reference method) with QC strains and anti-microbial agent(s). Specifically, bacteria were grown overnight on TSA w/5% sheep blood agar plates and diluted in saline buffer to a McFarland Standard 0.5, then further diluted in cation-ion adjusted Mueller Hinton Broth to a final concentration of approximately 5×10^5 CFU/mL. 100 μL of inoculated media was added to 96-well plate(s) with 3 μL of serially diluted compound in each row. Depending on strain (see CLSI reference method), bacteria were incubated 18-22 hours at 35-37° C. in ambient air, with 5% CO2 or anaerobically (up to 48 hours).

[6] = tested on: P. multocida; test: Murine P. multocida intranasal challenge study, treatment 18 hours after challenge, survival; type: in vivo, mice; conditions: subcutaneous 18 hours after challenge (5×10^3 CFU/mouse); tulathromycin 16 mg/kg, M9 32 mg/kg, ceftiofur 9 mg/kg
Experimental: In one murine P. multocida intranasal challenge study, mice were administered tulathromycin (16 mg/kg; T02), M9 (32 mg/kg; T03), or ceftiofur (9 mg/kg; T04) by subcutaneous injection 18 hours after bacterial challenge (5×10^3 CFU/mouse) for lung tissue RNA sequence analysis. Survival at Day 7 was about 80%, 50%, and 90% for T02, T03, and T04, respectively, compared to placebo at 0%. Differential gene expression from total lung tissue RNA sequence analysis indicated at least 226 unique genes were up or down regulated (with significance) for T03. Output from ingenuity pathway analysis of these unique genes predicted major upstream regulators of the involved pathways. Data was analyzed based on the number of genes being modulated in the same direction that were associated with a given upstream regulator. An activation z-score of 2 or greater is considered significant and the direction change is indicated by + (activated) or -(inhibited). The top 5 pathways included: IL-9 signaling, glucocorticoid receptor signaling, prolactin signaling, JAK STAT signaling, and IL-17 signaling. The top 6 upstream regulators (activation z-score) included: lipopolysaccharide (−6.725), TNF (−4.669), IFNγ (−5.759), IL-1β (−5.947), STAT1 (−2.787), and poly rl: rC-RNA (−5.289). Even though this study was run in the murine model, the top upstream regulators identified as being modulated by M9 include an almost ubiquitous overlap with the pathways identified in the natural disease study as being key mediators in BRD, and therefore is modulating highly relevant pathways in BRD pathobiology.

[7] = tested on: P. multocida; test: MIC, P. multocida strains; type: cell-based
Description: as §1, §2, §3

[8] = tested on: M. haemolytica; test: MIC, M. haemolytica strains; type: cell-based
Description: as §1, §2, §3

[9] = tested on: natural bovine respiratory disease (BRD); test: Natural bovine respiratory disease study, treatment failure; type: in vivo, beef calves; conditions: Zactran group T04 (dose not given), 14-day observation
[10] = lung isolates at necropsy, natural BRD study, n=25
[11] = lung isolates at necropsy, natural BRD study, n=33
[12] = lung isolates at necropsy, natural BRD study, n=116

MIC values, range [5] [µg/mL] | SMILES | IC50 [1] [µM] | IC50 [2] [µM] | % Survival [3] [%] | minimal effective concentration [4] [µM] | further results
 | CCCNC[C@]1(O)[C@H](C)OC(O[C@H]2[C@H](C)[C@@H](O[C@@H]3O[C@H](C)C[C@H](N(C)S(=O)(=O)c4nccn4C)[C@H]3Oc3ccc(F)cc3)[C@](C)(O)C[C@@H](C)CN[C@H](C)[C@@H](O)[C@](C)(O)[C@@H](CC)OC(=O)[C@@H]2C)C[C@@]1(C)OC (stereo partly drawn) [Example B-107, N-[(2S,3R,4S,6R)-2-[[(2R,3S,4R,5R,8R,10R,11R,12S,13S, 14R)-2-ethyl-3,4,10-trihydroxy-13-[(4R,5S,6S)-5-hydroxy-4-methoxy-4,6-dimethyl-5-(propylaminomethyl)oxan-2-yl]oxy-3,5,8, 10, 12, 14-hexamethyl-15-oxo-1-oxa-6-azacyclopentadec-11-yl]oxy]-3-(4-fluorophenoxy)-6-methyloxan-4-yl]-N, 1-dimethylimidazole-2-sulfonamide] | 22 | 9 | 82 | 2 | 
0.12 to 2 | CS(=O)(=O)c1ccc([C@@H](O)[C@@H](CF)NC(=O)C(Cl)Cl)cc1 [florfenicol] |  |  |  |  | 
<0.06 to 1 | CCN1CCN(c2cc3c(cc2F)c(=O)c(C(=O)O)cn3C2CC2)CC1 [enrofloxacin] |  |  |  |  | 
 | CCCNC[C@]1(O)[C@H](C)O[C@@H](O[C@H]2[C@H](C)[C@@H](O[C@@H]3O[C@H](C)C[C@H](N(C)S(=O)(=O)N(C)C4CCCCC4)[C@H]3O)[C@](C)(O)C[C@@H](C)CN[C@H](C)[C@@H](O)[C@](C)(O)[C@@H](CC)OC(=O)[C@@H]2C)C[C@@]1(C)OC [Example B-49, (2R,3S,4R,5R,8R,10R,11R,12S,13S,14R)-11-[(2S,3R,4S,6R)-4-[[cyclohexyl(methyl)sulfamoyl]-methylamino]-3-hydroxy-6-methyloxan-2-yl]oxy-2-ethyl-3,4,10-trihydroxy-13-[(2R,4R,5S,6S)-5-hydroxy-4-methoxy-4,6-dimethyl-5-(propylaminomethyl)oxan-2-yl]oxy-3,5,8,10,12,14-hexamethyl-1-oxa-6 azacyclopentadecan-15-one] | 37 | 16 | 53 | 6 | 
 | CO/N=C(\C(=O)N[C@@H]1C(=O)N2C(C(=O)O)=C(CSC(=O)c3ccco3)CS[C@H]12)c1csc(N)n1 [ceftiofur] |  |  |  |  | Survival at Day 7 [6]: ~90%
 | CC[C@H]1OC(=O)[C@H](C)[C@@H](O)[C@H](C)[C@@H](O[C@@H]2O[C@H](C)C[C@H](N(C)S(=O)(=O)c3ccccc3)[C@H]2Oc2ccccc2)[C@](C)(O)C[C@@H](C)CN(C)[C@H](C)[C@@H](O)[C@]1(C)O [Example A-3, N-((2S,3R,4S,6R)-2-(((2R,3S,4R,5R,8R,10R,11R,12S,13S,14R)-2-ethyl-3,4, 10,13-tetrahydroxy-3,5,6,8,10, 12,14-heptamethyl-15-oxo-1-oxa-6-azacyclopentadecan-11-yl)oxy)-6-methyl-3-phenoxytetrahydro-2H-pyran-4-yl)-N-methylbenzenesulfonamide] | 23 | 43 | 24 | 14 | 
 | CCCNC[C@]1(O)[C@H](C)O[C@@H](O[C@H]2[C@H](C)[C@@H](O[C@@H]3O[C@H](C)C[C@H](N(Cc4ccc(OC)cc4)S(=O)(=O)c4ccccc4)[C@H]3O)[C@](C)(O)C[C@@H](C)CN[C@H](C)[C@@H](O)[C@](C)(O)[C@@H](CC)OC(=O)[C@@H]2C)C[C@@]1(C)OC [Example B-148, N-((2S,3R,4S,6R)-2-(((2R,3S,4R,5R,8R,10R,11R,12S,13S,14R)-2-ethyl-3,4,10-trihydroxy-13-(((2R,4R,5S,6S)-5-hydroxy-4-methoxy-4,6-dimethyl-5-((propylamino)methyl)tetrahydro-2H-pyran-2-yl)oxy)-3,5,8,10, 12, 14-hexamethyl-15-oxo-1-oxa-6-azacyclopentadecan-11-yl)oxy)-3-hydroxy-6-methyltetrahydro-2H-pyran-4-yl)-N-(4-methoxybenzyl)benzenesulfonamide] | 2 | 4 | 68 | 2 | 

SMILES | MIC values, range [5] [µg/mL] | IC50 [1] [µM] | IC50 [2] [µM] | % Survival [3] [%] | minimal effective concentration [4] [µM] | further results
CCCN1C[C@H](C)[C@@H](O)[C@](C)(O)[C@@H](CC)OC(=O)[C@H](C)[C@@H](O[C@H]2C[C@@](C)(OC)[C@@H](O)[C@H](C)O2)[C@H](C)[C@@H](O[C@@H]2O[C@H](C)C[C@H](N(C)C)[C@H]2O)[C@](C)(O)C[C@H]1C [gamithromycin, reference compound] | 0.25 to 8 |  |  |  |  | MIC50 [5, 10]: 0.25 µg/mL (≈ 0.322 µM); MIC90 [5, 10]: 2 µg/mL (≈ 2.57 µM); MIC Range [5, 10]: 0.12 to 2 µg/mL; MIC50 [7, 11]: 1 µg/mL (≈ 1.29 µM); MIC90 [7, 11]: >64 µg/mL; MIC values, range ([7]; the same P. multocida strains of the panel): 1 to 2 µg/mL; MIC50 [8, 12]: 1 µg/mL (≈ 1.29 µM); MIC90 [8, 12]: >64 µg/mL; MIC values, range ([8]; the same M. haemolytica strains of the panel): 0.5 to 1 µg/mL; Percent failure [9]: 29.8%
